For 19 compounds, IC50 results are on record in patent publication US5629321A, “Bicyclic compound and platelet aggregation inhibitor containing the same” (Mitsui Toatsu Chemicals, Inc., priority 1994, dated 1997).

Molecules are shown by their SMILES. Where a name gives a salt, the structure may show the parent alone. Some results are limits rather than exact numbers.

Assay [1] relates to platelet aggregation. As to the kind of experiment: Inhibition of platelet aggregation in human (ADP-induced, platelet-rich plasma). As to conditions: human PRP, ADP final concentration 5 μM, 37° C. Type of assay: cell-based. The method, then: 2. Inhibition of platelet aggregation in human
Blood was collected from healthy human volunteers with an injection syringe and mixed one volume of 3.8% sodium citrate as an anticoagulant to 9 volumes of the blood. Successively, the obtained blood mixture was subjected to centrifugation at 120×g for 15 minutes at room temperature to obtain platelet-rich plasma (PRP). The residual blood after separating the PRP was further subjected to centrifugation at 1,200×g for 20 minutes to obtain platelet-poor plasma (PPP). Numbers of the platelet were measured with an automatic platelet counter: Sysmex PL-100 (manufactured by Toa Iyodensi Co.) and PRP was diluted with PPP so as to adjust a platelet concentration to be about 250,000 particles/μl. Platelet aggregation was measured by the following procedure with a 6 channel aggregometer: HEMA TRACER 1 (manufactured by NKK Co.)
After warming 240 μl of PRP at 37° C. for 2 minutes, 30 μl of the solvent of specimen as a control or the specimen having various concentrations was added to PRP. Further 2 minutes later, 30 μl of adenosine diphosphate (final concentration: 5 μM) was added to induce platelet aggregation. An inhibition percentage was obtained by comparing the maximum aggregation rate of the specimen drug group with that of control. […]

For assay [2], the system named is platelet aggregation. Kind of assay: Inhibition of platelet aggregation in Guinea pig (ADP-induced, platelet-rich plasma). Type of assay: cell-based, male guinea pig. The settings on record: Cavia porcellus, guinea pig PRP, ADP final concentration 5 μM, 37° C. The method, then:
1. Inhibition of platelet aggregation in Guinea pig
Blood of male guinea pig was collected with an injection syringe which contains 3.8% sodium citrate as an anticoagulant in a ratio of 1 volume to 9 volumes of the blood. Successively, the collected blood mixture was subjected to centrifugation at 120×g for 15 minutes at room temperature to obtain platelet-rich plasma (PRP). The residual blood after separating PRP was further subjected to centrifugation at 1,200×g for 15 minutes to obtain platelet-poor plasma (PPP). Numbers of the platelet in PRP were measured with an automatic platelet counter: Sysmex PL-100 (manufactured by Toa Iyodensi Co.) and PRP was diluted with PPP so as to adjust a platelet concentration to be about 300,000 particles/μ 1. Platelet aggregation was measured by the following procedure with a 6 channel aggregometer: HEMA TRACER 1 (manufactured by NKK Co.).
After warming 240 μl of PRP at 37° C. for 2 minutes, 30 μl of the solvent of specimen as a control or of the specimen having various concentrations was added to PRP. Further 2 minutes later, 30 μl of adenosine diphosphate (final concentration: 5 μM) was added to induce platelet aggregation. An inhibition percentage was obtained by comparing the maximum aggregation rate of the specimen drug group with that of control. […]

A word on the IC50: it is the midpoint of a concentration-inhibition curve. A high value points to weaker potency. `N=C(N)c1ccc(COc2ccc3c(c2)CC(CC(=O)O)CC3)cc1` (stereo not shown) [Compound No. 80, 7-[(4-amidinobenzyl)oxy]-1,2,3,4-tetrahydronaphthalene-2-acetic acid]: 1500 nM corresponded to half-maximal inhibition in the assay on platelet aggregation [1] (IC50).

As for `N=C(N)c1ccc(C(=O)Nc2ccc3c(c2)CN(CC(=O)O)CC3)cc1` [Compound No. 28, 7-[(4-amidinobenzoyl)amino]-1,2,3,4-tetrahydroisoquinoline-2-acetic acid], the figures for the IC50 with platelet aggregation [1] and in the assay with platelet aggregation [2] were 293 nM and 6600 nM, respectively.

In turn, `CCOC(=O)CC1COc2ccc(OCc3ccc(C(=N)N)cc3)cc2C1` (stereo not shown) [Compound No. 90, ethyl 6-[(4-amidinobenzyl)oxy]chroman-3-acetate] had an IC50 in the assay with platelet aggregation [2] of 17000 nM.

Consider `N=C(N)c1ccc(COc2ccc3c(c2)CC(CC(=O)O)CO3)cc1` (stereo not shown) [Compound No. 89, 6-[(4-amidinobenzyl)oxy]chroman-3-acetic acid], for which the IC50 in the assay with platelet aggregation [2] stood at 12000 nM.

`N=C(N)c1ccc(CNc2ccc3c(c2)CC(CC(=O)O)CC3)cc1` (stereo not shown) [Compound No. 84, 7-[(4-amidinobenzyl)amino]-1,2,3,4-tetrahydronaphthalene-2-acetic acid] gave an IC50 with platelet aggregation [2] of 24000 nM.

On to `CN(C(=O)c1ccc(C(=N)N)cc1)c1ccc2c(c1)CC(CC(=O)O)CC2` (stereo not shown) [Compound No. 47, 7-[N-(4-amidinobenzoyl)-N-methylamino]-1,2,3,4-tetrahydronaphthalene-2-acetic acid], for which the concentration for half-maximal inhibition (IC50) in the assay with platelet aggregation [1] came out at 194 nM; in the assay with platelet aggregation [2] it was 1770 nM.

`CCOC(=O)CC1CCc2ccc(NC(=O)c3ccc(C(=N)N)cc3)cc2C1` (stereo not shown) [Compound No. 3, ethyl 7-[(4-amidinobenzoyl)amino]-1,2,3,4-tetrahydronaphthalene-2-acetate] came in with an IC50 with platelet aggregation [2] of 400 nM.

With `NCc1ccc(C(=O)Nc2ccc3c(c2)CC(CC(=O)O)CC3)cc1` (stereo not shown) [Compound No. 123, 7-[(4-aminomethylbenzoyl)amino]-1,2,3,4-tetrahydronaphthalene-2-acetic acid], the half-inhibitory concentration (IC50) with platelet aggregation [2] was 14000 nM.

Regarding `CN(C(=O)c1ccc2c(c1)CC(CC(=O)O)CC2)c1ccc(C(=N)N)cc1` (stereo not shown) [Compound No. 56, 7-[N-(4-amidinophenyl)-N-methylcarbamoyl]-1,2,3,4-tetrahydronaphthalene-2-acetic acid], the IC50 in the assay with platelet aggregation [1] turned out to be 115 nM; in the assay on platelet aggregation [2], 340 nM.

Regarding `N=C(N)c1ccc(C(=O)Nc2ccc3c(c2)CC(CC(=O)O)CO3)cc1` (stereo not shown) [Compound No. 17, 6-[(4-amidinobenzoyl)amino]chroman-3-acetic acid], in the assay with platelet aggregation [1], the IC50 came out at 49 nM.

On to `N=C(N)c1ccc(C(=O)Nc2ccc3c(c2)C(=O)N(CC(=O)O)CC3)cc1` [Comparative compound, 7-[(4-amidinobenzoyl)amino]-l-oxo-3,4-dihydroisoquinolone-2-acetic acid hydrochloride, reference compound], for which the IC50 in the assay on platelet aggregation [1] was 3900 nM; in the assay on platelet aggregation [2], over 100000 nM.

As to `N=C(N)c1ccc(C(=O)Nc2ccc3c(c2)CC(CC(=O)O)CC3)cc1` (stereo not shown) [Compound No. 1, 7-[(4-amidinobenzoyl)amino]-1,2,3,4-tetrahydronaphthalene-2-acetic acid], the values for the half-inhibitory concentration (IC50) with platelet aggregation [1] and with platelet aggregation [2] were 57 nM and 370 nM, respectively.

In the assay with platelet aggregation [2], `N=C(N)c1ccc(OCc2ccc3c(c2)CC(CC(=O)O)CC3)cc1` (stereo not shown) [Compound No. 82, 7-[(4-amidinophenoxy)methyl]-1,2,3,4-tetrahydronaphthalene-2-acetic acid] registered a half-inhibitory concentration (IC50) of 39000 nM.

In the assay with platelet aggregation [2], `CCOC(=O)CN1CCc2ccc(C(=O)Nc3ccc(C(=N)N)cc3)cc2C1` [compound 37, ethyl 7-[N-(4-amidinophenyl)carbamoyl]-1,2,3,4-tetrahydroisoquinoline-2-acetate] showed a half-inhibitory concentration (IC50) of 4300 nM.

For the compound `COC(=O)CC1CCc2ccc(OCc3ccc(C(=N)N)cc3)cc2C1` (stereo not shown) [Compound No. 81, methyl 7-[(4-amidinobenzyl)oxy]-1,2,3,4-tetrahydronaphthalene-2-acetate], the IC50 with platelet aggregation [2] was found to be 22000 nM.

The compound `N=C(N)c1ccc(COc2ccc3c(c2)C=C(CC(=O)O)CC3)cc1` [Compound No. 91, 7-[(4-amidinobenzyl)oxy]-3,4-dihydronaphthalene-2-acetic acid] came in with an IC50 with platelet aggregation [2] of 41000 nM.

For the compound `N=C(N)c1ccc(NC(=O)c2ccc3c(c2)CC(CC(=O)O)CC3)cc1` (stereo not shown) [Compound No. 9, 7-[N-(4-amidinophenyl)carbamoyl]-1,2,3,4-tetrahydronaphthalene-2-acetic acid], the values for the IC50 in the assay on platelet aggregation [1] and in the assay on platelet aggregation [2] were 46 nM and 230 nM, respectively.

Take `CCOC(=O)CC1CCc2ccc(C(=O)Nc3ccc(C(=N)N)cc3)cc2C1` (stereo not shown) [Compound No. 11, ethyl 7-[N-(4-amidinophenyl)carbamoyl]-1,2,3,4-tetrahydronaphthalene-2-acetate]: in the assay with platelet aggregation [2], the IC50 is 340 nM.

`N=C(N)Nc1ccc(C(=O)Nc2ccc3c(c2)CC(CC(=O)O)CC3)cc1` (stereo not shown) [Compound No. 93, 7-[(4-guanidinobenzoyl)amino]-1,2,3,4-tetrahydronaphthalene-2-acetic acid]: in the assay with platelet aggregation [2], the half-inhibitory concentration (IC50) amounted to 27000 nM.
